For series [1], the target named is T1, AKR1C3 (Homo sapiens, UniProt P42330).
T1 sequence (P42330 1-323): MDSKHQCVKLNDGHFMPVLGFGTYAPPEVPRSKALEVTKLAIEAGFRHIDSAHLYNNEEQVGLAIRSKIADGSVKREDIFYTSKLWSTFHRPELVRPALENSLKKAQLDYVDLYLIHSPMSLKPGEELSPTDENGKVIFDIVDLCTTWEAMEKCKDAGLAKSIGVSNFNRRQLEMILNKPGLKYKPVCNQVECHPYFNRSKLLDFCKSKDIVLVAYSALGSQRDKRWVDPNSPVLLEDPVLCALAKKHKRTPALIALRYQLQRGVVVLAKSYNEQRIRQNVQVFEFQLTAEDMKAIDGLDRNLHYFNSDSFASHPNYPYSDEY
In words: Aldo-Keto Reductase (AKR) Activity Assay Kit (Colorimetric) in LNCaP-AKR1C3 cells. In kind it is cell-based. On the set-up: expressed in transfected cells; host or cells: LNCaP-AKR1C3. Particulars: 48 hrs. As for the experimental part: To examine whether compound 1 and compound 2 are useful in inhibiting AKR1C3 activity, LNCaP-AKR1C3 were treated with either compound 1 or compound 2 for 48 hrs. AKR1C3 enzymatic activity was determined by Aldo-Keto Reductase (AKR) Activity Assay Kit (Colorimetric), the results of which are shown in FIG. 2. Similarly, the inhibition of AKR1C3 activity was examined with varying doses of compound 1. LNCaP-AKR1C3 cells were treated with increasing doses of compound 1 for 48 hrs.

Series [2] has as its system C4-2B MDVR cells. Description: RNAseq of genes associated with cancer cell proliferation and survival in C4-2B MDVR cells. In kind it is cell-based. Particulars: 5 μM, vs DMSO control. As to the method: In addition, the effect of the compounds on the expression of genes involved in cancer was studied. Enzalutamide resistant C4-2B MDVR cells were treated with 5 μM of compound 1, 2, 5, or 8, or DMSO control.

Series [3] concerns VCaP tumors. Description: VCaP tumor model in intact SCID mice. In kind it is in vivo. Conditions: 20 mg/kg I.P. 5 days a week for 3 weeks. As for the experimental part:
Next the effects of compound 1 in vivo were studied in two separate models. First, intact SCID mice were injected with resistant prostate cancer VCaP cells suspended in matrigel. Once tumors were palpable, mice were divided into two groups: control or 20 mg/kg compound 1 administered I.P. 5 days a week for 3 weeks. Tumor volumes were measured twice weekly and mouse weights were monitored. At the end of treatment, tumors and serum were collected for assessment.

The subject of series [4] is C4-2B MDVR cells. In words: Cell number of enzalutamide-resistant C4-2B MDVR cells. In kind it is cell-based. Particulars: 48 hrs. As to the method: C4-2B MDVR cells were treated with increasing doses of compound 1 for 48 hrs.
To evaluate whether compound 1 is an effective inhibitor of anti-androgen resistant cell growth, a series of resistant cells were treated with their respective anti-androgens for 48 hrs. Enzalutamide resistant MDVR cells, abiraterone resistant AbiR cells, apalutamide resistant ApaIR cells, and darolutamide resistant DaroR cells were treated with their respective anti-androgens: enza (20 μM), abi (20 μM), apal (20 μM), darolutamide (20 μM), or compound 1 (5 μM).

In series [5] the target is T2, AR (Homo sapiens, UniProt P10275, T878A).
T2 construct: endogenous in cells; host or cells: LNCaP
T2 sequence (P10275 1-920 T878A): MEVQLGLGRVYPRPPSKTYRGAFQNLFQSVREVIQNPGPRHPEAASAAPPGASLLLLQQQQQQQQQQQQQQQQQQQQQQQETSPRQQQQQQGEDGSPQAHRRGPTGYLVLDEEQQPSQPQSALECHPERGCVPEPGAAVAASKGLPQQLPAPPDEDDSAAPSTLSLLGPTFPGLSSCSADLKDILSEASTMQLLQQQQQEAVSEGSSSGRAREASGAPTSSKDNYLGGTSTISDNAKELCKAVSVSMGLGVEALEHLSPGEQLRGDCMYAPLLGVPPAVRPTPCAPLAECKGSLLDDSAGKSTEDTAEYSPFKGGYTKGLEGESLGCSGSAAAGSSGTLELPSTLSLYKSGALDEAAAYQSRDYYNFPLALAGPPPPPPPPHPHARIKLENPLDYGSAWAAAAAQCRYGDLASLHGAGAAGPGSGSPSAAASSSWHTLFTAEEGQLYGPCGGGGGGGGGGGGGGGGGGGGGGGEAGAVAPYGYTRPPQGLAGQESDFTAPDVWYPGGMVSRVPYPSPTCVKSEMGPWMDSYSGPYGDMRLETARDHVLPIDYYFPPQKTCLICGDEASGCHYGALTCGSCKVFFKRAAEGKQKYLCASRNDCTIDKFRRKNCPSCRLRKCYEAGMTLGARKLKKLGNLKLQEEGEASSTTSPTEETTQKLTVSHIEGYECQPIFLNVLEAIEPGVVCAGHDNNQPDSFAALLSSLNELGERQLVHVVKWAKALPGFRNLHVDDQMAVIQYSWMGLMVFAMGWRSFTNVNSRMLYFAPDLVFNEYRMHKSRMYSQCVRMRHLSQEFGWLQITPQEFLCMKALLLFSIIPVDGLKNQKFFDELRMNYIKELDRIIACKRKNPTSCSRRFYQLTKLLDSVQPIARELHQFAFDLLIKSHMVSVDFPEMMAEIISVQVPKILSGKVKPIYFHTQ
Description: DHT-stimulated AR nuclear translocation in LNCaP cells (immunofluorescent staining). Particulars: charcoal stripped FBS. In kind it is cell-based. As to the method:
LNCaP cells cultured in charcoal stripped FBS conditions were treated with DHT and the compounds as indicated. AR expression were visualized by immunofluorescent staining.
(§1) Next, the effects of the new AR/AKR1C3 inhibitors on AR signaling were studied. […] To further confirm the inhibitory role of the compounds in AR signaling, enzalutamide resistant C4-2B MDVR cells (which have enhanced expression of AR, AR variants, and AKR1C3) were treated with 5 μM compound 1, 5 μM compound 5, or a DMSO control. Total RNA was isolated assessed using RNAseq.

Series [6] concerns AR-V7. In words: RNAseq of AR-V7 signature genes in C4-2B MDVR cells. In kind it is cell-based. Particulars: 5 μM, vs DMSO control. As to the method: as §1
The subject of series [7] is LuCaP35CR tumors. Description: LuCaP35CR PDX model in castrated SCID mice. The format is in vivo. As for the experimental part: The LuCaP35CR PDX model was also employed to investigate the effects of compound 1 in vivo. For this model, SCID mice were castrated and implanted with LuCaP35CR tissues. Once tumors were palpable, mice were divided into two groups: control or 20 mg/kg compound 1 administered I.P. 5 days a week for 3 weeks. Tumor volumes were measured twice weekly and mouse weights were monitored. At the end of treatment, tumors and serum were collected for assessment.

For series [8], the system named is MCF-7 breast cancer cells. Description: Cell number of MCF-7 breast cancer cells. In kind it is cell-based. Particulars: 48 hrs.
For series [9], the system named is AR. In words: RNAseq of AR signaling genes in C4-2B MDVR cells. In kind it is cell-based. Particulars: 5 μM, vs DMSO control. As for the experimental part: as §1
Series [10] concerns the target T1, AKR1C3. In words: Ex vivo tumor based AKR1C3 enzyme assay (androstenedione conversion to testosterone). The format is cell-based. Conditions: ex vivo tumors, androstenedione 300 nmol/L, testosterone in supernatants. As to the method:
AKR1C3 plays a crucial role in the synthesis of testosterone, by catalyzing the conversion of the adrenal androgens dehydroepiandrosterone (DHEA) and androstenedione (AD) into testosterone. To determine the effects of compound 1 on inhibition of AKR1C3 enzymatic activity an ex vivo tumor based AKR1C3 enzyme assay was conducted. LUCaP35CX tumors, which express high levels of AKR1C3, were digested with 0.1% protease and cultured in medium supplemented with 10% heat-inactivated charcoal-dextran-stripped FBS. After overnight incubation, androstenedione (300 nmol/L) was added with or without compound 1. The supernatants were collected to measure testosterone.

Where [11] appears, read: LuCaP35CR PDX, castrated SCID mice, 20 mg/kg I.P. 5 days a week for 3 weeks.

Entries after “also recorded” stand apart in the source; their conditions may differ.

As to `O=C(Nc1cc(C(F)(F)F)cc(C(F)(F)F)c1)c1cc(Cc2ccccc2)ccc1O` [compound 1, 5-benzyl-N-(3,5-bis(trifluoromethyl)phenyl)-2-hydroxybenzamide], the AKR1C3 enzymatic activity result in series [1] is “inhibit AKR1C3 activity”. The “AKR1C3 enzymatic activity, increasing doses” value in series [1] (increasing doses) was “inhibited in dose-dependent fashion”. The “expression of genes associated with cancer cell proliferation and survival” value in [2] was “greatly reduced expression of genes associated with cancer cell proliferation and survival; also recorded: inhibit genes associated with cancer cell proliferation and survival”. Moreover, the “serum PSA” value in series [3] (end of treatment) is given as “significantly decreased”; in series [7] (setting [11]) it was “reduced”. The mouse body weight entry in series [3] (vs control) and in series [7] (setting [11]) was “no effect on mouse body weight” throughout. Further, the “tumor volume / tumor growth” value in [3] (vs control, 20 mg/kg) was “significantly decreased tumor volume; also recorded: inhibits VCaP tumor growth”; in series [7] (LuCaP35CR PDX, castrated SCID mice, 20 mg/kg I.P. 5 days a week for 3 weeks, 20 mg/kg), “significantly decreased tumor volumes; also recorded: inhibits LuCaP35CR tumor growth”. In series [4], the “total cell number (cell growth)” value is “inhibit cell growth”. In addition, the “total cell number (cell growth), increasing doses” value was “inhibited in dose-dependent fashion” in [4] (increasing doses) and “inhibited in dose dependent fashion” in series [8]. The “AR nuclear translocation / DHT-stimulated AR nuclear expression” value in series [5] is given as “capable of inhibiting DHT-stimulated AR nuclear expression; also recorded: inhibit AR nuclear translocation”. Also, the “expression of AR-V7 signature genes” value in series [6] is listed as “reduced expression of AR-V7 signature genes; also recorded: inhibit AR-V7 activity signature genes”. Also, the intratumoral testosterone levels entry in series [7] (setting [11]) is listed as “significantly reduced intratumoral testosterone levels”. Besides, the tolerability entry in [7] (conclusion from VCaP and LuCaP35CR mouse models, 20 mg/kg I.P.) is “well-tolerated”. Also, the “expression of genes associated with AR signaling (AR activity signature genes)” value in series [9] is on record as “greatly reduced expression of genes associated with AR signaling; also recorded: inhibit AR activity signature genes”. In addition, in [10], the “androstenedione conversion to testosterone” value is “dose-dependent inhibition; also recorded: inhibits the conversion from androstenedione to testosterone”.
Regarding `COc1ccc(Cc2ccc(O)c(C(=O)Nc3cc(C(F)(F)F)cc(C(F)(F)F)c3)c2)cc1` [compound 5, N-(3,5-bis(trifluoromethyl)phenyl)-2-hydroxy-5-(4-methoxybenzyl)benzamide], the “expression of genes associated with cancer cell proliferation and survival” value in series [2] was “greatly reduced expression of genes associated with cancer cell proliferation and survival; also recorded: inhibit genes associated with cancer cell proliferation and survival”. For the same compound, the “AR nuclear translocation / DHT-stimulated AR nuclear expression” value in [5] is “capable of inhibiting DHT-stimulated AR nuclear expression; also recorded: inhibit AR nuclear translocation”. For the same compound, the “expression of AR-V7 signature genes” value in series [6] is listed as “reduced expression of AR-V7 signature genes; also recorded: inhibit AR-V7 activity signature genes”. For the same compound, the “expression of genes associated with AR signaling (AR activity signature genes)” value in series [9] is listed as “greatly reduced expression of genes associated with AR signaling; also recorded: inhibit AR activity signature genes”.
As to `COc1ccc(C(=O)c2ccc(O)c(C(=O)Nc3cc(C(F)(F)F)cc(C(F)(F)F)c3)c2)cc1` [compound 8, N-(3,5-Bis(trifluoromethyl)phenyl)-2-hydroxy-5-(4-methoxybenzoyl)benzamide], in [2], the “expression of genes associated with cancer cell proliferation and survival” value is “greatly reduced expression of genes associated with cancer cell proliferation and survival; also recorded: inhibit genes associated with cancer cell proliferation and survival”.
